Measured values reported in patent US5409933A, “Quinoline derivatives and processes for preparing the same” (priority 1993, dated 1995).
Where a name gives a salt, the structure may show the parent alone. Read-outs that look alike come from different tables or passages of the source.

Experiments:
Assay in all cases: In Vitro Anti-Bacterial Activity Test (MIC, agar dilution)
Type in all cases: cell-based
[1] = system: Enterobacter cloacae 1321E; settings: Enterobacter cloacae 1321E; Muller-Hinton agar, 37° C., 18 hours; read-out: MIC
Procedure: (§1) The above in vitro antibacterial activity test was carried out in accordance with the agar culture medium dilution method (Hoechst 345) by using Muller-Hinton agar medium to determine the minimum inhibitory concentration (MIC).
(§2) The strains having 10^7 C.F.U./ml were inoculated on the culture medium, and the growth of the strains was observed after incubating them at 37° C. for 18 hours, in which ciprofloxacin was used as a control antibacterial agent. In this test, twenty typical strains were used.

[2] = system: Enterobacter cloacae P99; settings: Enterobacter cloacae, P99, 18 h
Procedure: as §1, §2

[3] = system: Escherichia coli 078; settings: Escherichia coli 078; Muller-Hinton agar, 37° C., 18 hours; read-out: MIC
Procedure: as §1, §2

[4] = system: Escherichia coli 1507E; settings: Muller-Hinton agar, 37° C.
Procedure: as §1, §2

[5] = system: Escherichia coli DC0; settings: Muller-Hinton agar, 37° C., 18 hours, read-out: MIC
Procedure: as §1, §2

[6] = system: Escherichia coli DC2; settings: Escherichia coli, DC2, 18 h
Procedure: as §1, §2

[7] = system: Escherichia coli TEM; settings: Escherichia coli, 18 h, Muller-Hinton agar, 37° C.
Procedure: as §1, §2

[8] = system: Klebsiella aerogenes 1522E; settings: Klebsiella aerogenes, 1522E, 18 h, Klebsiella aerogenes 1522E; Muller-Hinton agar, 37° C., 18 hours; read-out: MIC
Procedure: as §1, §2

[9] = system: Klebsiella oxytoca 1082E; settings: Klebsiella oxytoca 1082E; Muller-Hinton agar, 37° C., 18 hours; read-out: MIC
Procedure: as §1, §2

[10] = system: Pseudomonas aeruginosa 1592E; settings: Muller-Hinton agar, 37° C., 18 hours, read-out: MIC
Procedure: as §1, §2

[11] = system: Pseudomonas aeruginosa 1771M; settings: Pseudomonas aeruginosa, 1771M, 18 h, Muller-Hinton agar, 37° C.
Procedure: as §1, §2

[12] = system: Pseudomonas aeruginosa 1771; settings: Pseudomonas aeruginosa 1771; Muller-Hinton agar, 37° C., 18 hours; read-out: MIC
Procedure: as §1, §2

[13] = system: Pseudomonas aeruginosa 9027; settings: Muller-Hinton agar, 37° C., 18 hours, read-out: MIC
Procedure: as §1, §2

[14] = system: Salmonella typhimurium; settings: Salmonella enterica
Procedure: as §1, §2

[15] = system: Staphylococcus aureus 285; settings: Staphylococcus aureus, 285, 18 h, Staphylococcus aureus 285; Muller-Hinton agar, 37° C., 18 hours; read-out: MIC
Procedure: as §1, §2

[16] = system: Staphylococcus aureus 503; settings: Staphylococcus aureus 503; Muller-Hinton agar, 37° C., 18 hours; read-out: MIC
Procedure: as §1, §2

[17] = system: Staphylococcus aureus SG511; settings: Staphylococcus aureus SG511; Muller-Hinton agar, 37° C., 18 hours; read-out: MIC
Procedure: as §1, §2

[18] = system: Streptococcus faecium MD8b; settings: Enterococcus faecium, Muller-Hinton agar, 37° C., 18 hours, read-out: MIC
Procedure: as §1, §2

[19] = system: Streptococcus pyogenes 308A; settings: Muller-Hinton agar, 37° C., 18 hours, read-out: MIC
Procedure: as §1, §2

[20] = system: Streptococcus pyogenes 77A
Procedure: as §1, §2

[21] = Streptococcus pyogenes 77A, Muller-Hinton agar, 37° C., 18 hours, read-out: MIC
[22] = Salmonella typhimurium, Muller-Hinton agar, 37° C., 18 hours, read-out: MIC

SMILES	MIC [1] [µg/mL]	MIC [2] [µg/mL]	MIC [3] [µg/mL]	MIC [5] [µg/mL]	MIC [6] [µg/mL]	MIC [7] [µg/mL]	MIC [8] [µg/mL]	MIC [9] [µg/mL]	MIC [10] [µg/mL]	MIC [11] [µg/mL]	MIC [12] [µg/mL]	MIC [13] [µg/mL]	MIC [15] [µg/mL]	MIC [16] [µg/mL]	MIC [17] [µg/mL]	MIC [18] [µg/mL]	MIC [19] [µg/mL]	MIC [20, 21] [µg/mL]	MIC ([4]; Escherichia coli, 1507E, 18 h) [µg/mL]	MIC [14, 22] [µg/mL]	other results
CCOC(=O)C(C(=O)OCC)C(=O)c1cn(C2CC2)c2cc(N3CCNCC3)c(F)cc2c1=O [Example 18, 1-cyclopropyl-6-fluoro-7-(piperazin-1-yl)-3-(2,2-diethoxycarbonylacetyl)-1,4-dihydro-4-oxoquinoline hydrochloride]	< 0.002	< 0.002	0.004	0.195	0.098	0.007	0.013	0.004	0.391	0.049	0.195	0.781	0.391	0.391	0.195	0.781	3.12	0.781	–	–	MIC ([4]; 18 hours, read-out: MIC): 0.004 µg/mL; MIC ([14]; TYPHIMURIUM, 18 h): 0.007 µg/mL
CCOC(=O)CC(=O)c1cn(C2CC2)c2cc(N3CCNCC3)c(F)cc2c1=O [Example 19, 1-cyclopropyl-6-fluoro-7-(piperazin-1-yl)-3-(2-ethoxycarbonylacetyl)-1,4-dihydro-4-oxoquinoline hydrochloride]	0.013	0.013	0.004	0.391	0.391	0.195	0.049	0.013	1.56	1.56	0.781	0.781	1.56	0.781	0.391	0.781	3.12	1.56	0.013	0.391	–
CCOC(=O)C(C(=O)OCC)C(=O)c1cn(C2CC2)c2c(F)c(N3CCC(N)C3)c(F)cc2c1=O (stereo not shown) [Example 20, 1-cyclopropyl-6,8-difluoro-7-(3-aminopyrrolidin-1-yl)-3-(2,2-diethoxycarbonylacetyl)-1,4-dihydro-4-oxoquinoline hydrochloride]	< 0.002	< 0.002	< 0.002	0.098	0.013	< 0.002	0.025	< 0.002	0.195	0.098	0.195	0.391	0.013	0.025	0.013	0.098	0.391	0.098	0.007	< 0.002	–
CCOC(=O)CC(=O)c1cn(C2CC2)c2c(F)c(N3CCC(N)C3)c(F)cc2c1=O (stereo not shown) [Example 21, 1-cyclopropyl-6,8-difluoro-7-(3-aminopyrrolidin-1-yl)-3-(2-ethoxycarbonylacetyl)-1,4-dihydro-4-oxoquinoline hydrochloride]	< 0.002	0.007	0.004	0.098	0.049	0.013	0.025	0.004	0.391	0.098	0.195	0.391	0.049	0.049	0.049	0.781	0.781	0.391	0.013	0.013	–
CCOC(=O)C(C(=O)OCC)C(=O)c1cn(C2CC2)c2c(Cl)c(N3CCC(N)C3)c(F)cc2c1=O (stereo not shown) [Example 22, 1-cyclopropyl-6-fluoro-8-chloro-7-(3-aminopyrrolidin-1-yl)-3-(2,2-diethoxycarbonylacetyl)-1,4-dihydro-4-oxoquinoline hydrochloride]	< 0.002	0.004	0.004	0.098	0.025	< 0.002	0.025	< 0.002	0.781	0.195	0.781	0.781	0.098	0.049	0.049	0.391	0.391	–	–	0.004	MIC ([4]; 18 hours, read-out: MIC): < 0.002 µg/mL; MIC ([20]; Streptococcus pyogenes, 77A, 18 h): 0.781 µg/mL
